From patent publication US20230167070A1, “MODULATORS OF TREX1” (Constellation Pharmaceuticals, Inc., priority 2020, published 2023)

Legend:
[1] = biological target: T1, human TREX2 (residues M44-A279) (Homo sapiens, UniProt Q9BQ50); assay: TREX2 Biochemical Assay (fluorescence, dsDNA substrate degradation); conditions: 2.5 nM TREX2, 60 nM dsDNA substrate, 25 minutes at room temperature
T1 construct: human TREX2 (residues M44-A279, expressed in E. coli); made in house; host or cells: E. coli
T1 sequence (Q9BQ50 44-279 isoform Q9BQ50-1): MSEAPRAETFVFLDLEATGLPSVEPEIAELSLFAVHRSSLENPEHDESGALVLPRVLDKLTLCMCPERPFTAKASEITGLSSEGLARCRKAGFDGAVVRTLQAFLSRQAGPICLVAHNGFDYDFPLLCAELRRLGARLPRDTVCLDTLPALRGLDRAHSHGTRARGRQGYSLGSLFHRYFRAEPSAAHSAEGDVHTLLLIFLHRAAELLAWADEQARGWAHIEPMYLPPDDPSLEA
Description: Degradation of the dsDNA liberates free fluorophore to produce a fluorescent signal. Specifically, 7.5 μL of N-terminally His-Tev tagged human TREX2 (residues M44-A279, expressed in E. coli and purified in house) in reaction buffer (50 mM Tris (pH 7.4), 150 mM NaCl, 2 mM DTT, 0.1 mg/mL BSA, 0.01% (v/v) Tween-20 and 100 mM MgCl2) was added to a 384-well Black ProxiPlate Plus (Perkin Elmer) which already contained compound (150 nL) at varying concentrations as a 10 point dose-response in DMSO. To this was added 7.5 μL of dsDNA substrate (Strand A: 5′ TEX615/GCT AGG CAG 3′; Strand B: 5′ CTG CCT AGC/IAbRQSp (IDT)) in reaction buffer. Final concentrations were 2.5 nM TREX2, 60 nM dsDNA substrate in reaction buffer with 1.0% DMSO (v/v). After 25 minutes at room temperature, reactions were quenched by the addition of 5 μL of stop buffer (same as reaction buffer plus 200 mM EDTA). Final concentrations in the quenched reaction mixture were […] TREX2, 45 nM DNA and 50 mM EDTA in a volume of 20 μL. After a 5-minute incubation at room temperature, plates were read in a laser sourced Envision (Perkin-Elmer), measuring fluorescence at 615 nm following excitation w/570 nm light. IC50 values were calculated by comparing the measured fluorescence at 615 nm ratio relative to control wells pre-quenched w/stop buffer (100% inhibition) and no inhibitor (0% inhibition) controls as using non-linear least square four parameter fits and either Genedata or GraphPad Prism (GraphPad Software, Inc.).

full length human TREX1 = biological target: T2, full length human TREX1 (Homo sapiens, UniProt Q9NSU2); assay: TREX1 Biochemical Assay (fluorescence, dsDNA substrate degradation); conditions: 150 pM TREX1, 60 nM dsDNA substrate, 25 minutes at room temperature
T2 construct: N-terminally His-Tev tagged full length human TREX1; made in house; host or cells: E. coli
T2 sequence (Q9NSU2 1-314): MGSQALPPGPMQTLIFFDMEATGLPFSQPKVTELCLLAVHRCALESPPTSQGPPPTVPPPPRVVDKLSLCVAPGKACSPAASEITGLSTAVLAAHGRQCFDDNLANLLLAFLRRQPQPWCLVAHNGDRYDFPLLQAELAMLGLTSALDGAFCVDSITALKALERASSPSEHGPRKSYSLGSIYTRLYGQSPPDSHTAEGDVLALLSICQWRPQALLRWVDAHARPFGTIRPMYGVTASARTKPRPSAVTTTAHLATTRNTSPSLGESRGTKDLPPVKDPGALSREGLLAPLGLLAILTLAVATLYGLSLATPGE
Description: Degradation of the dsDNA liberates free fluorophore to produce a fluorescent signal. Specifically, 7.5 μL of N-terminally His-Tev tagged full length human TREX1 (expressed in E. coli and purified in house) in reaction buffer (50 mM Tris (pH 7.4), 150 mM NaCl, 2 mM DTT, 0.1 mg/mL BSA, 0.01% (v/v) Tween-20 and 100 mM MgCl2) was added to a 384-well Black ProxiPlate Plus (Perkin Elmer) which already contained compound (150 nL) at varying concentrations as a 10 point dose-response in DMSO. To this was added 7.5 μL of dsDNA substrate (Strand A: 5′ TEX615/GCT AGG CAG 3′; Strand B: 5′ CTG CCT AGC/IAbRQSp (Integrated DNA Technologies)) in reaction buffer. Final concentrations were 150 pM TREX1, 60 nM dsDNA substrate in reaction buffer with 1.0% DMSO (v/v). After 25 minutes at room temperature, reactions were quenched by the addition of 5 μL of stop buffer (same as reaction buffer plus 200 mM EDTA). Final concentrations in the quenched reaction were 112.5 pM TREX1, 45 nM DNA and 50 mM EDTA in a volume of 20 μL. After a 5-minute incubation at room temperature, plates were read in a laser sourced Envision (Perkin-Elmer), measuring fluorescence at 615 nm following excitation w/570 nm light. IC50 values were calculated by comparing the measured fluorescence at 615 nm ratio relative to control wells pre-quenched w/stop buffer (100% inhibition) and no inhibitor (0% inhibition) controls as using non-linear least square four parameter fits and either Genedata or GraphPad Prism (GraphPad Software, Inc.).

Structure (SMILES) | IC50 [1] | IC50 (full length human TREX1)
CN(c1nc(C(=O)Nc2nnco2)c(O)c(=O)n1C)C(c1ccccc1)c1ccccc1 [Example 38, 2-(benzhydryl(methyl)amino)-5-hydroxy-1-methyl-N-(1,3,4-oxadiazol-2-yl)-6-oxo-1,6-dihydropyrimidine-4-carboxamide] | 10 to 100 µM | 1 to 10 µM
Cc1nocc1NC(=O)c1nc(N(C)C(c2ccccc2)c2ccccc2)n(C)c(=O)c1O [Example 32, 2-(benzhydryl(methyl)amino)-5-hydroxy-1-methyl-N-(3-methylisoxazol-4-yl)-6-oxo-1,6-dihydropyrimidine-4-carboxamide] | 1 to 10 µM | < 0.1 µM
CN(c1nc(C(=O)Nc2ccc(F)cc2)c(O)c(=O)n1C)[C@H](c1ccccc1)c1ccccc1Cl (stereo in doubt) [Example 29, 2-(((2-chlorophenyl)(phenyl)methyl)(methyl)amino)-N-(4-fluorophenyl)-5-hydroxy-1-methyl-6-oxo-1,6-dihydropyrimidine-4-carboxamide] | < 1 µM | 0.1 to 1 µM
CN(c1nc(C(=O)Nc2cncnc2)c(O)c(=O)n1C)C(c1ccccc1)c1ccccc1 [Example 26, 2-(benzhydryl(methyl)amino)-5-hydroxy-1-methyl-6-oxo-N-(pyrimidin-5-yl)-1,6-dihydropyrimidine-4-carboxamide] | 1 to 10 µM | 1 to 10 µM
CN(c1nc(C(=O)NC2CCC2)c(O)c(=O)n1C)C(c1ccccc1)c1ccccc1 [Example 7, 2-(benzhydryl(methyl)amino)-N-cyclobutyl-5-hydroxy-1-methyl-6-oxo-1,6-dihydropyrimidine-4-carboxamide] | 10 to 100 µM | 1 to 10 µM
CN(c1nc(C(=O)Nc2c(F)cccc2F)c(O)c(=O)n1C)C(c1ccccc1)c1ccccc1 [Example 19, 2-(benzhydryl(methyl)amino)-N-(2,6-difluorophenyl)-5-hydroxy-1-methyl-6-oxo-1,6-dihydropyrimidine-4-carboxamide] | 10 to 100 µM | 1 to 10 µM
CN(c1nc(C(=O)NCC(F)(F)F)c(O)c(=O)n1C)C(c1ccccc1)c1ccccc1 [Example 1, 2-(benzhydryl(methyl)amino)-5-hydroxy-1-methyl-6-oxo-N-(2,2,2-trifluoroethyl)-1,6-dihydropyrimidine-4-carboxamide] | 10 to 100 µM | 1 to 10 µM
CN(c1nc(C(=O)Nc2ccc(F)c(F)c2)c(O)c(=O)n1C)C(c1ccccc1)c1ccccc1 [Example 20, 2-(benzhydryl(methyl)amino)-N-(3,4-difluorophenyl)-5-hydroxy-1-methyl-6-oxo-1,6-dihydropyrimidine-4-carboxamide] | < 1 µM | 0.1 to 1 µM
CN(c1nc(C(=O)Nc2ccc(C(F)(F)F)cc2)c(O)c(=O)n1C)C(c1ccccc1)c1ccccc1 [Example 28, 2-(benzhydryl(methyl)amino)-5-hydroxy-1-methyl-6-oxo-N-(4-(trifluoromethyl)phenyl)-1,6-dihydropyrimidine-4-carboxamide] | 10 to 100 µM | > 10 µM
CN(c1nc(C(=O)Nc2cccc(F)c2)c(O)c(=O)n1C)C(c1ccccc1)c1ccccc1 [Example 16, 2-(benzhydryl(methyl)amino)-N-(3-fluorophenyl)-5-hydroxy-1-methyl-6-oxo-1,6-dihydropyrimidine-4-carboxamide] | < 1 µM | < 0.1 µM
CN(c1nc(C(=O)N[C@H]2CCOC2)c(O)c(=O)n1C)C(c1ccccc1)c1ccccc1 [Example 3, (S)-2-(benzhydryl(methyl)amino)-5-hydroxy-1-methyl-6-oxo-N-(tetrahydrofuran-3-yl)-1,6-dihydropyrimidine-4-carboxamide] | 10 to 100 µM | > 10 µM
CN(c1nc(C(=O)Nc2cccc(F)c2F)c(O)c(=O)n1C)C(c1ccccc1)c1ccccc1 [Example 22, 2-(benzhydryl(methyl)amino)-N-(2,3-difluorophenyl)-5-hydroxy-1-methyl-6-oxo-1,6-dihydropyrimidine-4-carboxamide] | < 1 µM | < 0.1 µM
CN(c1nc(C(=O)Nc2ccccc2)c(O)c(=O)n1C)C(c1ccccc1)c1ccccc1 [Example 15, 2-(benzhydryl(methyl)amino)-5-hydroxy-1-methyl-6-oxo-N-phenyl-1,6-dihydropyrimidine-4-carboxamide] | < 1 µM | < 0.1 µM
CN(c1nc(C(=O)Nc2ccc(F)cc2)c(O)c(=O)n1C)C(c1ccccc1)c1ccccc1 [Example 18, 2-(benzhydryl(methyl)amino)-N-(4-fluorophenyl)-5-hydroxy-1-methyl-6-oxo-1,6-dihydropyrimidine-4-carboxamide] | < 1 µM | 0.1 to 1 µM
CCNC(=O)c1nc(N(C)C(c2ccccc2)c2ccccc2)n(C)c(=O)c1O [Example 10, 2-(benzhydryl(methyl)amino)-N-ethyl-5-hydroxy-1-methyl-6-oxo-1,6-dihydropyrimidine-4-carboxamide] | 10 to 100 µM | 1 to 10 µM
CN(c1nc(C(=O)NC2CC=CC2)c(O)c(=O)n1C)C(c1ccccc1)c1ccccc1 [Example 6, 2-(benzhydryl(methyl)amino)-N-(cyclopent-3-en-1-yl)-5-hydroxy-1-methyl-6-oxo-1,6-dihydropyrimidine-4-carboxamide] | 10 to 100 µM | 1 to 10 µM
Cc1onc(NC(=O)c2nc(N(C)C(c3ccccc3)c3ccccc3)n(C)c(=O)c2O)c1C [Example 37, 2-(benzhydryl(methyl)amino)-N-(4,5-dimethylisoxazol-3-yl)-5-hydroxy-1-methyl-6-oxo-1,6-dihydropyrimidine-4-carboxamide] | 10 to 100 µM | 1 to 10 µM
Cc1oncc1NC(=O)c1nc(N(C)C(c2ccccc2)c2ccccc2)n(C)c(=O)c1O [Example 36, 2-(benzhydryl(methyl)amino)-5-hydroxy-1-methyl-N-(5-methylisoxazol-4-yl)-6-oxo-1,6-dihydropyrimidine-4-carboxamide] | 1 to 10 µM | 0.1 to 1 µM
CNC(=O)c1nc(N(C)C(c2ccccc2)c2ccccc2)n(C)c(=O)c1O [Example 12, 2-(benzhydryl(methyl)amino)-5-hydroxy-N,1-dimethyl-6-oxo-1,6-dihydropyrimidine-4-carboxamide] | 10 to 100 µM | > 10 µM
CN(c1nc(C(=O)Nc2ccccc2F)c(O)c(=O)n1C)C(c1ccccc1)c1ccccc1 [Example 17, 2-(benzhydryl(methyl)amino)-N-(2-fluorophenyl)-5-hydroxy-1-methyl-6-oxo-1,6-dihydropyrimidine-4-carboxamide] | < 1 µM | < 0.1 µM
